Assay results reported in patent US9408899B2, “Vaccines against Toxoplasma gondii” (priority 2010, dated 2016).
Read-outs that look alike come from different tables or passages of the source. No end group written: not given here.

Experiments:
[1] = target: HLA-A*0201 (Homo sapiens, UniProt P04439, D140Y/D185E/D98H/E176V/E277Q/G131W/G231S/I119V/I121R/I166T/I218V/L300P/L318F/N151K/N90K/P208A/P217A/Q86G/Q94H/R138H/R169H/T345S); assay: MHC-peptide binding assay (inhibition of binding of radiolabeled standard peptide); conditions: for IC50: MHC binding assay, measured IC50 approximates Kd, no unit in table, text b40 speaks of nM, read-out: Affinity (c) HLA-A*0201
Description: (§2) Briefly, 1-10 nM of radiolabeled peptides were co-incubated with 1 M-1 nM purified MHC and 1-3 human β2-microglobulin. After 2 days, binding of radiolabeled peptide to corresponding MHC Class I molecule was determined by capturing MHC-peptide complexes on Greiner GREINER® Lumitrac 600 microplates coated with W6/32 antibody and measuring bound counts per minutes using a Topcount microscintillation counter. […] Under conditions used, where [radiolabeled probe]<[MHC] and IC50≧[MHC], measured IC50 values are reasonable approximations of true Kd values.

[2] = system: Splenic T cells from HLA-A*0201 mice; assay: IFN-γ ELISpot with splenocytes of immunized HLA-A*0201 transgenic mice; format: in vivo; conditions: for IFN-γ production from T cells of immunized mice: HLA-A*0201 mice immunized with pooled peptides plus PADRE; for IFN-γ production in vitro by T cells from immunized mice: HLA-A*0201 mice immunized with pooled peptides alone, stimulated with the individual peptide
Description: Eleven to fourteen days post immuniztion, spleen cells were isolated and exposed to each individual peptide.
5×10^5 splenocytes were plated per well. All antibodies and reagents used for ELISpot assays were obtained from Mabtech (Cincinnati, Ohio). Cells were plated in at least 3 replicate wells for each condition. Results were expressed as number of spot forming cells (SFCs) per 10^6 PBMCs or per 10^6 murine splenocytes.
Mice were boosted once at a 2-week interval.
Three to five mice from each group were euthanized 7 to 14 days after the last immunization. Spleens were harvested, pressed through a 70 μm screen to form a single-cell suspension, and depleted of erythrocytes with ASK lysis buffer (160 mM NH4Cl, 10 mM KHCO3, 100 μM EDTA).
Each ELISpot experiment was replicated a minimum of twice. P values of ≦0.05 were considered significant.

[3] = system: splenocytes from HLA-A*1101 transgenic mice; assay: IFN-γ ELISpot with splenocytes of immunized HLA-A*1101 transgenic mice; format: in vivo; conditions: for IFN-γ production by splenocytes of lipopeptide-immunized mice: HLA-A*1101 mice immunized twice at three week intervals with lipopeptide in PBS, stimulated with peptides
Description: As controls, mice were injected with PBS. Mice were vaccinated twice at 3-week intervals.
Murine splenocytes: Mice were euthanized 7 to 14 days after immunization. Spleens were harvested, pressed through a 70 μm screen to form a single-cell suspension, and depleted of erythrocytes with AKC lysis buffer (160 mM NH4Cl, 10 mM KHCO3, 100 μM EDTA).
5×10^5 splenocytes were plated per well.
Both murine and human cells were plated in at least 3 replicate wells for each condition. Results were expressed as number of spot forming cells (SFCs) per 10^6 PBMCs or per 10^6 murine splenocytes.
All mouse experiments were repeated at least twice, with 4-5 mice for each group.

[4] = system: HLA-A03 supertype; assay: MHC-peptide binding assay, number of supertype alleles bound; set-up: species or system human; conditions: of six HLA-A03 supertype alleles tested
Source text: (§1) Assays were as described in Sidney, J., et al. Immunome Res 4, 2 (2008).

[5] = target: HLA-A*3301 (Homo sapiens, UniProt P04439, A270S/D185E/E176V/E277Q/E87N/F33T/G231S/H175R/I121M/I218V/I322F/K168Q/K210R/L300P/L318F/M331R/P217A/Q86R/Q94H/R138Q/T323A/T345S/T97I/V358M/Y195H); assay: MHC-peptide binding assay; conditions: MHC binding affinity; IC50 approximates Kd; unit inferred
Source text: as §1

[6] = target: HLA-A*0301 (Homo sapiens, UniProt P04439); assay: MHC-peptide binding assay; conditions: MHC binding affinity; IC50 approximates Kd; unit inferred
Source text: as §1

[7] = target: HLA-A*3101 (Homo sapiens, UniProt P04439, A270S/D185E/E176V/E277Q/F33T/G231S/G80R/H175R/I121M/I218V/I322F/K168Q/L300P/L318F/M331R/P217A/Q94H/R138Q/T323A/T345S/T97I/V358M); assay: MHC-peptide binding assay; conditions: MHC binding affinity; IC50 approximates Kd; unit inferred
Source text: as §1

[8] = target: HLA-A*6801 (Homo sapiens, UniProt P04439, A269V/D185E/E176V/E277Q/E87N/F33Y/G231S/I121M/I166T/I218V/L180W/L300P/L318F/N151K/P208A/P217A/Q86R/R169H/T345S); assay: MHC-peptide binding assay; conditions: MHC binding affinity; IC50 approximates Kd; unit inferred
Source text: as §1

[9] = target: HLA-A*3001 (Homo sapiens, UniProt P04439, D140H/D185E/E176W/F33S/G80R/H175R/K168Q/R138E/R41S); assay: MHC-peptide binding assay; conditions: MHC binding affinity; IC50 approximates Kd; unit inferred
Source text: as §1

[10] = target: HLA-A*1101 (Homo sapiens, UniProt P04439, A114D/D185E/E176A/F33Y/L180Q/S129P/T187R); assay: MHC-peptide binding assay; conditions: unit inferred
Source text: Under conditions used, where [radiolabeled probe]<[MHC] and IC50≧[MHC], measured IC50 values are reasonable approximations of true Kd values.

[11] = system: splenocytes from HLA-B*0702 transgenic mice; conditions: HF10 administered as lipopeptide with PADRE or with MLA, earlier work; cited from earlier work
[12] = target: HLA-A*0202 (Homo sapiens, UniProt P04439, D140Y/D185E/D98H/E176V/E277Q/G131W/G231S/I119L/I121R/I166T/I218V/L180W/L300P/L318F/N151K/N90K/P208A/P217A/Q67R/Q86G/Q94H/R138H/R169H/T345S); assay: biochemical
Description: as §2

[13] = target: HLA-A*0203 (Homo sapiens, UniProt P04439, A173T/D140Y/D185E/D98H/E277Q/G131W/G231S/I119V/I121R/I166T/I218V/L180W/L300P/L318F/N151K/N90K/P208A/P217A/Q86G/Q94H/R138H/R169H/T345S); assay: MHC-peptide binding assay
Description: as §2

[14] = Table 3, MHC binding assay, read-out: Affinity^b HLA-A*1101

Question: For FMIVSISLV [SAG2X351-359], which IC50 [1] is on record?
Answer: Its IC50 is 16 nM.

Question: What about the “IFN-γ production from T cells of immunized mice” value (“IFN-γ production from T cells” for short) [2] of the same compound?
Answer: The value was “significant IFN-γ production”.

Question: Which IC50 [1] does the source give for ITMGSLFFV [SPA12-20] here?
Answer: Its IC50 is 0.16 nM.

Question: Which “IFN-γ production by splenocytes of lipopeptide-immunized mice” value [3] does the source give for “LpKS9: lipopeptide: palmitic acid-bearing lysine, PADRE, then KSFKDILPK (SAG1224-232)” here?
Answer: The value was “higher IFN-γ production than LpRS9”.

Question: For SSAYVFSVK, which “SUPERTYPE ALLELES BOUND” value [4] is on record?
Answer: Its value is 5.

Question: What about the IC50 [5] of the same compound?
Answer: Its IC50 is 181 nM.

Question: What about the IC50 [6] of the same compound?
Answer: The IC50 was 12 nM.

Question: And the IC50 [7]?
Answer: Its IC50 is 97 nM.

Question: What about the IC50 [8] of the same compound?
Answer: Its IC50 is 2.1 nM.

Question: What about the IC50 [9] of the same compound?
Answer: Its IC50 is 1830 nM.

Question: What about the IC50 [10, 14] of the same compound?
Answer: The IC50 was 10 nM.

Question: What does the source list for FMIAFISCFA [SAG2D180-189]?
Answer: IC50 [1]: 32 nM; IFN-γ production in vitro by T cells from immunized mice [2]: significant IFN-γ production; IFN-γ production from T cells of immunized mice [2]: significant IFN-γ production

Question: For “HPGSVNEFDF (listed as Toxoplasma gondii) [HF10]”, which “immunogenic in HLA-B07 transgenic mice” value [11] is on record?
Answer: Its value is “not immunogenic”.

Question: With AVVSLLRLLK as the compound, how does the “SUPERTYPE ALLELES BOUND” value [4] read?
Answer: The value was 4.

Question: What about the IC50 [5] of the same compound?
Answer: The IC50 was 1100 nM.

Question: What about the IC50 [6] of the same compound?
Answer: The IC50 was 17 nM.

Question: What about the IC50 [7] of the same compound?
Answer: The IC50 was 1300 nM.

Question: And the IC50 [8]?
Answer: Its IC50 is 94 nM.

Question: And the IC50 [9]?
Answer: Its IC50 is 8.1 nM.

Question: What about the IC50 [10, 14] of the same compound?
Answer: Its IC50 is 34 nM.

Question: With FVIFACNFV [SAG2X44-52] as the compound, how does the IC50 [1] read?
Answer: Its IC50 is 34 nM.

Question: What about the “IFN-γ production from T cells” value [2] of the same compound?
Answer: Its value is “significant IFN-γ production”.

Question: With FLTDYIPGA [SAG3136-144] as the compound, how does the IC50 [1] read?
Answer: Its IC50 is 0.7 nM.

Question: Which “IFN-γ production by splenocytes of lipopeptide-immunized mice” value [3] does the source give for “LpAM9: lipopeptide: palmitic acid-bearing lysine, PADRE, then AMLTAFFLR (GRA6164-172)” here?
Answer: The value was “higher IFN-γ production than LpRS9”.

Question: Which IC50 [1] does the source give for GLAAAVVAV [SPA82-90] here?
Answer: The IC50 was 9.6 nM.

Question: What does the source list for STFWPCLLR?
Answer: SUPERTYPE ALLELES BOUND [4]: 5; IC50 [5]: 3.4 nM; IC50 [6]: 22 nM; IC50 [7]: 1.2 nM; IC50 [8]: 0.97 nM; IC50 [9]: 1270 nM; IC50 ([10]; MHC binding affinity, Table 2b, IC50 approximates Kd, read-out: HLA-A*1101): 10 nM

Question: For FLLGLLVHV [SAG3375-383], which IC50 [1] is on record?
Answer: The IC50 was 6.4 nM.

Question: What about the “IFN-γ production from T cells” value [2] of the same compound?
Answer: The value was “significant IFN-γ production”.

Question: For FLSLSLLVI [SAG2C38-46], which Kd [12] is on record?
Answer: The Kd was 50 to 500 nM.

Question: And the Kd [1]?
Answer: Its Kd is > 50 nM.

Question: What about the IC50 [1] of the same compound?
Answer: Its IC50 is 736 nM.

Question: What about the Kd [13] of the same compound?
Answer: Its Kd is 50 to 500 nM.

Question: What about the “IFN-γ production in vitro by T cells from immunized mice” value [2] of the same compound?
Answer: The value was “significant IFN-γ production”.

Question: What about the “IFN-γ production from T cells” value [2] of the same compound?
Answer: Its value is “significant IFN-γ production”.

Question: For CC(C)C[C@H](NC(=O)[C@H](CC(C)C)NC(=O)[C@H](CC(=O)O)NC(=O)[C@H](CCCCN)NC(=O)[C@H](Cc1ccccc1)NC(=O)[C@H](CO)NC(=O)[C@@H](N)CCCNC(=N)N)C(=O)N[C@@H](CCCCN)C(=O)N[C@@H](CCCCN)C(=O)O, which “IFN-γ production on stimulation of spleen cells with the peptide” value ([3]; HLA-A*1101 mice immunized with a mixture of peptides and adjuvants) is on record?
Answer: The value was “not present”.
